Source: patent US11667602B2, “Compounds and their use” (AstraZeneca AB, priority 2020, dated 2023)
Where two headings read alike, the source gives them in different places.

Biological target: T1, human RXFP1 (Homo sapiens, UniProt Q9HBX9)
T1 sequence (Q9HBX9 1-757): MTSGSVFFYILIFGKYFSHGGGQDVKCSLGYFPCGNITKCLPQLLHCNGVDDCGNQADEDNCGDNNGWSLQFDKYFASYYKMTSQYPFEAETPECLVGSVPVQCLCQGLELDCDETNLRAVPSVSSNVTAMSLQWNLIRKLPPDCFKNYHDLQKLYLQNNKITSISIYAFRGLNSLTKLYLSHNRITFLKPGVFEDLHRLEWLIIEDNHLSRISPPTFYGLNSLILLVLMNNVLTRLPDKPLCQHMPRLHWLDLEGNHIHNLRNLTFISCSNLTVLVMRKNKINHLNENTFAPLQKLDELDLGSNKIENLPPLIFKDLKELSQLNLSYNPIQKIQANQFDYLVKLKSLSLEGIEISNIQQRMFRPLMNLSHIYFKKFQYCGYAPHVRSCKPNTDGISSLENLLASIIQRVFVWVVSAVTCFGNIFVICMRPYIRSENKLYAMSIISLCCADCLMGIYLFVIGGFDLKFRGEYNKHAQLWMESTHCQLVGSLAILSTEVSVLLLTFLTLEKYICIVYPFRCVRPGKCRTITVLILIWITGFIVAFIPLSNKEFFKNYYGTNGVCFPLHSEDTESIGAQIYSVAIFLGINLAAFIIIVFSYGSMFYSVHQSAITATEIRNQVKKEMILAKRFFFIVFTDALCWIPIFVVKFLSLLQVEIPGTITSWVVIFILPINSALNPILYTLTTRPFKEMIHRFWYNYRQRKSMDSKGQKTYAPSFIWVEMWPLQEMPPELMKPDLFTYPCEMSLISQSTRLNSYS
Test: RXFP1 Hu cAMP (Test A)
Assay type: cell-based
Set-up: expressed in transfected cells; host or cells: Jump-In T-REx CHO-K1 cells (ThermoFisher), induced with 10 ng/ml doxycycline for 24 h
In short: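 Read-out is HTRF signal, inversely proportional to cAMP, converted to cAMP amount by standard curve. Stimulation occurred in inducible CHO-K1 cells expressing the human receptor with phosphodiesterases blocked by 0.5 mM IBMX.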

[1] = RXFP1 Hu cAMP, read-out: Test A EC50

Test A Sinf (RXFP1 Hu cAMP) [%]	EC50 [1] [nM]	Compound	EC50 (Test A EC50, RXFP1 Hu cAMP) [nM]
61	5700	COc1cc(F)c(-c2ccc(C(=O)O)nc2)cc1C(=O)N[C@H]1[C@@H](C(=O)Nc2cccc(S(=O)(=O)C(F)(F)F)c2)[C@@H]2C=C[C@H]1C2 (racemic) [Example 274, rac-5-(2-Fluoro-4-methoxy-5-(((1R,2R,3S,4S)-3-((3-((trifluoromethyl)sulfonyl)phenyl)carbamoyl)bicyclo[2.2.1]hept-5-en-2-yl)carbamoyl)phenyl)picolinic acid]	–
101	560	COc1cc(C#N)c(O[C@H]2CC[C@@](C)(C(=O)O)CC2)cc1C(=O)N[C@@H]1CC[C@@H]1C(=O)NCC1(C)CCC1 (racemic) [Example 348]	–
–	> 40000	COc1cc(F)c(-c2cnc(C(=O)O)nc2)cc1C(=O)N[C@H]1[C@@H](C(=O)Nc2cccc(S(=O)(=O)C(F)(F)F)c2)[C@@H]2C=C[C@H]1C2 (racemic) [Example 280]	–
91	160	COc1cc(F)c(OCCCCCC(=O)O)cc1C(=O)N[C@H]1[C@@H](C(=O)Nc2cccc(S(=O)(=O)C(F)(F)F)c2)[C@@H]2C=C[C@H]1C2 (racemic) [Example 455]	–
99	560	COc1cc(C#N)c(O[C@H]2CC[C@@](C)(C(=O)O)CC2)cc1C(=O)N[C@@H]1[C@H]2CC[C@H](C2)[C@@H]1C(=O)N[C@@H](C)C(C)(C)C [Example 119]	–
106	860	CCCNC(=O)[C@H]1[C@@H]2CC[C@@H](C2)[C@H]1NC(=O)c1cc(O[C@H]2CC[C@@](C)(C(=O)O)CC2)c(C#N)cc1OC [Example 116, (1S,4s)-4-(2-Cyano-4-methoxy-5-(((1S,2R,3S,4R)-3-(propylcarbamoyl)bicyclo[2.2.1]heptan-2-yl)carbamoyl)phenoxy)-1-methylcyclohexane-1-carboxylic acid]	–
–	> 40000	COc1cc(F)c(O[C@H]2CC[C@@](CO)(C(=O)O)CC2)cc1C(=O)NC1COCC1C(=O)NCC1(C)CCC1 (single isomer, unassigned) [Example 580, (1R,4s)-4-(2-Fluoro-4-methoxy-5-(((3S*,4R*)-4-(((1-methylcyclobutyl)methyl)carbamoyl)tetrahydrofuran-3-yl)carbamoyl)phenoxy)-1-(hydroxymethyl)cyclohexane-1-carboxylic acid]	–
132	110	COc1cc(C#N)c(O[C@H]2CC[C@@](C)(C(=O)O)CC2)cc1C(=O)Nc1cc(C)ccc1C(=O)NCC1(C)CC1 [Example 174]	–
104	540	COc1cc(F)c(O[C@H]2CC[C@@](C)(C(=O)O)CC2)cc1C(=O)N[C@@H]1C[C@H](OC)C[C@@H]1C(=O)Nc1cccc(S(=O)(=O)C(F)(F)F)c1 (stereo in doubt) [Example 335]	–
–	> 40000	COc1cc(F)c(-c2ccccc2C(=O)O)cc1C(=O)N[C@H]1[C@@H](C(=O)Nc2cccc(S(=O)(=O)C(F)(F)F)c2)[C@@H]2C=C[C@H]1C2 (racemic) [Example 273, rac-2′-Fluoro-4′-methoxy-5′-(((1R,2R,3S,4S)-3-((3-((trifluoromethyl)sulfonyl)phenyl)carbamoyl)bicyclo[2.2.1]hept-5-en-2-yl)carbamoyl)-[1,1′-biphenyl]-2-carboxylic acid]	–
–	> 40000	COc1cc(F)c(O[C@H]2C[C@@H]3[C@H](C2)[C@H]3C(=O)O)cc1C(=O)N[C@@H]1[C@H]2CC[C@H](C2)[C@@H]1C(=O)NCC1(C)CCC1 (racemic) [Example 426, (1RS,3SR,5SR,6RS)-3-(2-Fluoro-4-methoxy-5-(((1S,2R,3S,4R)-3-(((1-methylcyclobutyl)methyl)carbamoyl)bicyclo[2.2.1]heptan-2-yl)carbamoyl)phenoxy)bicyclo[3.1.0]hexane-6-carboxylic acid]	–
78	–	COc1cc(F)c(O[C@@H]2C[C@@H]3[C@H](C2)[C@H]3C(=O)O)cc1C(=O)N[C@@H]1[C@H]2CC[C@H](C2)[C@@H]1C(=O)NCC1(C)CCC1 (racemic) [Example 425, (1RS,3SR,5SR,6RS)-3-(2-Fluoro-4-methoxy-5-(((1S,2R,3S,4R)-3-(((1-methylcyclobutyl)methyl)carbamoyl)bicyclo[2.2.1]heptan-2-yl)carbamoyl)phenoxy)bicyclo[3.1.0]hexane-6-carboxylic acid]	–
100	110	CCCCCCNC(=O)[C@H]1[C@@H]2CC[C@@H](C2)[C@H]1NC(=O)c1cc(O[C@H]2CC[C@@](C)(C(=O)O)CC2)c(C#N)cc1OC [Example 117]	–
–	> 40000	COc1cc(F)c(O[C@H]2CC[C@@](C)(C(=O)O)CC2)cc1C(=O)NC1CC(OC)CC1C(=O)NCC(C)(C)C (single isomer, unassigned) [Example 546, (1R,4s)-4-(2-Fluoro-4-methoxy-5-(((1S*,2R*,4R*)-4-methoxy-2-(neopentylcarbamoyl)cyclopentyl)carbamoyl)phenoxy)-1-methylcyclohexane-1-carboxylic acid]	–
55	3300	COc1cc(F)c(-c2c[nH]c(C(=O)O)c2)cc1C(=O)N[C@H]1[C@@H](C(=O)Nc2cccc(S(=O)(=O)C(F)(F)F)c2)[C@@H]2C=C[C@H]1C2 (racemic) [Example 229]	–
78	3900	COc1cc(F)c(-c2cccc(C(=O)O)c2)cc1C(=O)N[C@@H]1CCC[C@@H]1C(=O)Nc1cccc(S(=O)(=O)C(F)(F)F)c1 (racemic) [Example 300]	–
107	610	COc1cc(F)c(OCc2ccc(C(=O)O)cc2)cc1C(=O)N[C@H]1[C@@H](C(=O)Nc2cccc(S(=O)(=O)C(F)(F)F)c2)[C@@H]2C=C[C@H]1C2 (racemic) [Example 450]	–
94	14	COc1cc(F)c(O[C@H]2C[C@@](C)(C(=O)O)C2)cc1C(=O)N[C@@H]1[C@@H]2CC[C@@H](C2)[C@@H]1C(=O)Nc1cccc(S(=O)(=O)C(F)(F)F)c1 [Example 505, (1S,3s)-3-(2-Fluoro-4-methoxy-5-(((1R,2R,3S,4S)-3-((3-((trifluoromethyl)sulfonyl)phenyl)carbamoyl)bicyclo[2.2.1]heptan-2-yl)carbamoyl)phenoxy)-1-methylcyclobutane-1-carboxylic acid]	–

Compound	Test A Sinf (RXFP1 Hu cAMP) [%]	EC50 [1] [nM]	EC50 (Test A EC50, RXFP1 Hu cAMP) [nM]
(1R,4s)-4-(2-Fluoro-5-(((3S*,4S*)-4-((4-fluoro-3-(pentafluoro-λ6-sulfaneyl)phenyl)carbamoyl)tetrahydro-2H-pyran-3-yl)carbamoyl)-4-methoxyphenoxy)-1-methylcyclohexane-1-carboxylic acid [Example 575]	101	–	–
COc1cc(C#N)c(O[C@H]2CC[C@@](C)(C(=O)O)CC2)cc1C(=O)N[C@H]1[C@@H](C(=O)NCC2(C)CCC2)[C@H]2CC[C@@H]1N2C(=O)OC(C)(C)C (racemic) [Example 334]	96	–	4.3
(1R,4s)-4-(2-Cyano-4-fluoro-5-(((2S*,3R*)-3-(((1-methylcyclobutyl)methyl)carbamoyl)bicyclo[2.2.2]octan-2-yl)carbamoyl)phenoxy)-1-methylcyclohexane-1-carboxylic acid [Example 589]	83	–	–
(1R,4s)-4-(2-Cyano-4-methoxy-5-(((1R*,2S*,3R*,4S*)-3-(((1-methylcyclobutyl)methyl)carbamoyl)bicyclo[2.2.2]oct-5-en-2-yl)carbamoyl)phenoxy)-1-methylcyclohexane-1-carboxylic acid [Example 541]	100	–	–
